Source: PubChem BioAssay AID328 (DTP/NCI, 2004)
Values joined by “and” are separate entries in the source; they are usually repeats but may differ in a detail not shown here. Identical values can stand only once. Inconclusive results and toxic doses are left out.

Tested on: BDF1 mice, P388 leukemia ip, median survival T/C
Assay: NCI In Vivo Anticancer Drug Screen. Data for tumor model P388 Leukemia (intraperitoneal) in B6D2F1 (BDF1) mice
Settings: endpoint: median survival time, higher = longer survival
Method in brief: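 Each value expresses how treatment altered survival: treated-mouse outcome over vehicle-mouse outcome, both groups bearing the transplanted tumour.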

[1] = dose: 50.0 mg/kg/injection, schedule: Q01DX009 (ip), vehicle: saline with Tween-80
[2] = dose: 100.0 mg/kg/injection, schedule: Q01DX009 (ip), vehicle: saline with Tween-80
[3] = dose: 100.0 mg/kg/injection, schedule: Q04DX003 (ip), vehicle: saline with Tween-80
[4] = dose: 200.0 mg/kg/injection, schedule: Q04DX003 (ip), vehicle: saline with Tween-80
[5] = dose: 400.0 mg/kg/injection, schedule: Q04DX003 (ip), vehicle: saline with Tween-80
[6] = dose: 50.0 mg/kg/injection, schedule: Q04DX003 (ip), vehicle: Klucel (hydroxypropylcellulose) (HPC)
[7] = dose: 100.0 mg/kg/injection, schedule: Q04DX003 (ip), vehicle: Klucel (hydroxypropylcellulose) (HPC)
[8] = dose: 200.0 mg/kg/injection, schedule: Q04DX003 (ip), vehicle: Klucel (hydroxypropylcellulose) (HPC)
[9] = dose: 25.0 mg/kg/injection, schedule: Q01DX009 (ip), vehicle: Klucel (hydroxypropylcellulose) (HPC)
[10] = dose: 50.0 mg/kg/injection, schedule: Q01DX009 (ip), vehicle: Klucel (hydroxypropylcellulose) (HPC)
[11] = dose: 100.0 mg/kg/injection, schedule: Q01DX009 (ip), vehicle: Klucel (hydroxypropylcellulose) (HPC)
[12] = dose: 400.0 mg/kg/injection, schedule: Q04DX003 (ip), vehicle: Klucel (hydroxypropylcellulose) (HPC)
[13] = dose: 200.0 mg/kg/injection, schedule: Q01DX009 (ip), vehicle: saline with Tween-80

SMILES: CN(C)CCCN1c2ccc(O)cc2Sc2ccc(Cl)cc21
- T/C (dose: 3.1 mg/kg/injection, schedule: Q01DX009 (ip), vehicle: other): 90 % of control
- T/C (dose: 6.2 mg/kg/injection, schedule: Q01DX009 (ip), vehicle: other): 90 % of control
- T/C (dose: 12.5 mg/kg/injection, schedule: Q01DX009 (ip), vehicle: other): 104 % of control
- T/C (dose: 25.0 mg/kg/injection, schedule: Q01DX009 (ip), vehicle: other): 109 % of control
- T/C (dose: 25.0 mg/kg/injection, schedule: Q01DX009 (ip), vehicle: saline with Tween-80): 91 % of control
- T/C [1]: 91 % of control
- T/C [2]: 100 % of control

SMILES: O=C(CN1CCOCC1)Nc1cccc(C(F)(F)F)c1
- T/C [3]: 86 % of control
- T/C [4]: 86 % of control
- T/C [5]: 109 % of control

SMILES: NC(=O)C1=C(O)C(=O)NC1=O
- T/C [6]: 100 % of control
- T/C [7]: 109 % of control
- T/C [8]: 95 % of control

SMILES: NC(CC[Se]CC(N)C(=O)O)C(=O)O (configuration not stated)
- T/C (dose: 0.5 mg/kg/injection, schedule: Q01DX010 (ip), vehicle: saline): 90 % of control
- T/C (dose: 1.0 mg/kg/injection, schedule: Q01DX010 (ip), vehicle: saline): 104 % of control
- T/C (dose: 2.0 mg/kg/injection, schedule: Q01DX010 (ip), vehicle: saline): 100 % of control
- T/C (dose: 4.0 mg/kg/injection, schedule: Q01DX010 (ip), vehicle: saline): 104 % of control

SMILES: O=C1CCCc2ccccc2N1
- T/C [9]: 100 % of control
- T/C [10]: 95 % of control
- T/C [11]: 91 % of control
- T/C [7]: 95 % of control
- T/C (dose: 200.0 mg/kg/injection, schedule: Q01DX009 (ip), vehicle: Klucel (hydroxypropylcellulose) (HPC)): 91 % of control
- T/C [8]: 100 % of control
- T/C (dose: 400.0 mg/kg/injection, schedule: Q01DX009 (ip), vehicle: Klucel (hydroxypropylcellulose) (HPC)): 91 % of control
- T/C [12]: 100 % of control

SMILES: O=C(CC(=O)C(F)(F)F)c1ccc(-c2ccccc2)cc1
- T/C [1]: 110 % of control
- T/C [2]: 122 % of control

SMILES: O=NN(CCF)C(=O)NCCF
- T/C (dose: 0.25 mg/kg/injection, schedule: Q01DX009 (ip), vehicle: saline): 120 % of control
- T/C (dose: 0.5 mg/kg/injection, schedule: Q04DX003 (ip), vehicle: saline): 120 % of control
- T/C (dose: 1.0 mg/kg/injection, schedule: Q01DX009 (ip), vehicle: saline): 150 % of control and 172 % of control
- T/C (dose: 1.0 mg/kg/injection, schedule: Q04DX003 (ip), vehicle: saline): 104 % of control
- T/C (dose: 2.0 mg/kg/injection, schedule: Q01DX009 (ip), vehicle: saline): 268 % of control
- T/C (dose: 2.0 mg/kg/injection, schedule: Q04DX003 (ip), vehicle: saline): 175 % of control
- T/C (dose: 3.3 mg/kg/injection, schedule: Q04DX003 (ip), vehicle: saline): 165 % of control
- T/C (dose: 5.0 mg/kg/injection, schedule: Q04DX003 (ip), vehicle: saline): 235 % of control
- T/C (dose: 7.5 mg/kg/injection, schedule: Q04DX003 (ip), vehicle: saline): 95 % of control
- T/C (dose: 10.0 mg/kg/injection, schedule: Q04DX003 (ip), vehicle: saline): 300 % of control
- T/C (dose: 20.0 mg/kg/injection, schedule: Q04DX003 (ip), vehicle: saline): 110 % of control

SMILES: N#CC(=C1C=CC(=NO)C=C1)c1ccc(Cl)cc1
- T/C [9]: 114 % of control
- T/C (dose: 25.0 mg/kg/injection, schedule: Q04DX003 (ip), vehicle: Klucel (hydroxypropylcellulose) (HPC)): 102 % of control
- T/C [10]: 114 % of control
- T/C [6]: 98 % of control
- T/C [11]: 117 % of control
- T/C [7]: 110 % of control
- T/C [8]: 122 % of control
- T/C [12]: 113 % of control

SMILES: c1ccc(C(=NCCN=C(c2ccccc2)c2ccccc2)c2ccccc2)cc1
- T/C [2]: 87 % of control
- T/C [3]: 100 % of control
- T/C [13]: 104 % of control
- T/C [4]: 91 % of control
- T/C (dose: 400.0 mg/kg/injection, schedule: Q01DX009 (ip), vehicle: saline with Tween-80): 112 % of control
- T/C [5]: 95 % of control

SMILES: Nc1cc(S(N)(=O)=O)ccc1SSc1ccc(S(N)(=O)=O)cc1N
- T/C (dose: 100.0 mg/kg/injection, schedule: Q01DX009 (ip), vehicle: saline): 122 % of control
- T/C (dose: 200.0 mg/kg/injection, schedule: Q01DX009 (ip), vehicle: saline): 154 % of control

SMILES: CCOC(=O)C1=C(O)Cc2c(nc3ccc(C)cn3c2=O)C1
- T/C [1]: 100 % of control
- T/C [2]: 96 % of control
- T/C [13]: 98 % of control
